# Results from patent US20200038348A1, “METHODS AND MATERIALS FOR REDUCING SCAR FORMATION DURING WOUND HEALING” (Mayo Foundation for Medical Education and Research, priority 2017, published 2020).
# “Also recorded” adds a separate entry of the source.
# How the values were obtained:
# [1] = cited from earlier work
# SPP1 promoter = assay: Dual-Glo luciferase reporter screen of SPP1 promoter activity (LOPAC library); format: cell-based
# Text: (A) Schematic representation of the DuoGlo construct used for high throughput compound screening. (B-C) SPP1 promoter activity after exposure of WM858 Dual-Glo cells to Vitamin D (B) or retinoid (C).
# (§1) SPP1 is a pro-inflammatory inducer of skin fibrosis and skin aging. […] To screen for transcriptional silencers of SPP1 expression, cells with high endogenous SPP1 expression (e.g., melanoma cells) were identified. Then, the endogenous SPP1 promoter was tagged in melanoma cells with a dual luciferase reporter to create Dual-Glo cells using a genome editing approach. Firefly luciferase was introduced to assay SPP1 promoter activity; renilla luciferase was coupled to the CMV promoter as a loading control (FIG. 1A).
# WM858 Dual-Glo cells = assay: in vitro cell toxicity in the SPP1 screen; format: cell-based; settings: in the SPP1 promoter screen
# Text: as §1
# [2] = test system: hypertrophic scar formation; assay: hypertrophic scar formation, ischemic rabbit ear model, topical treatment; format: in vivo
# Method: Topical pentamidine was evaluated using a hypertrophic scar formation rabbit ear model. Briefly, surgical ligation of leporine auricular vessels induced an ischemic landscape for hypertrophic scar production. Specifically, a cranial artery and vein were ligated; the caudal artery and vein were preserved; and the central artery was ligated, while the central vein was preserved in the rabbit ear (FIG. 2).
# All surgeries were conducted in a disinfected area designated for surgical procedures and equipped with necessary lighting and equipment. Briefly, rabbits received intramuscular buprenorphine and enrofloxicin (5-10 mg/kg) prior to the surgery. Anesthesia was induced by a mixture of ketamine and intramuscular xylazine and monitored by medical sciences support staff. Study staff performed surgeries using sterile instruments, drapes, gloves, and gown. Following vascular ligation, one linear full-thickness skin wound was created on the ventral side of each ear with a surgical blade. The skin and perichondrium were removed. The base on which granulation and epithelialization take place was the cartilage. The edges of the wound were closed with 4-0 Nylon sutures.
# Following ischemic wounding, the relative ischemia created in the ear at time of surgery and time of sacrifice was assessed with a fluorescent light assisted angiography (Spy Elite, LifeCell). Perfusion of the ear was assessed using the Spy Elite system following intravenous administration of indocyanine green, which utilizes infrared light to detect the dye (FIG. 3).
# Following vascular ligation and linear wounding, a sterile occlusive dressing (TegaDerm, 3M) was used to cover the wound site. Animals were allowed to recover for three days without wound disturbance. After 72 hours, the dressing was changed, and the treatment was initiated. […] Daily dressing changes occurred until day 28. About 1/8 teaspoon ([…]) of the treatment agent was applied with each dressing change. Rabbits were trained on the animal snuggler for ease during treatment application.
# Animals were monitored daily for any signs of postoperative discomfort, wound infection, weight loss, loss of appetite, and loss of contracture fixation. Any complications such as cage sores, wound infections, weight loss, or wound dehiscence were reviewed with the veterinarian and managed in a way designed to minimize discomfort or suffering. […] Six rabbits were used in this study. For three rabbits, the left ear received Treatment Group 1 (n=3), and the right ear received Treatment Group 2 (n=3). […] One rabbit was excluded from the study due to wound infection:
# (§2) Female New Zealand white rabbit ears were used. In total, twelve linear wounds were created using minimally invasive vascular ligation in auricular blood vessels to create ischemic hypertrophic scars. Following surgical ligation, linear wounds were treated with either osteopontin inhibitor 2% topical pentamidine (n=6; left ear) or base only (n=6; right ear) for four weeks. After the treatment period, samples were fixed in 10% formaldehyde, embedded in paraffin and stained for p16 expression.
# Female New Zealand white rabbits ears were used. In total, twelve linear wounds were created using minimally invasive vascular ligation in auricular blood vessels to create ischemic hypertrophic scars. Following surgical ligation, linear wounds were treated with the following dose titration: 0.5% pentamidine (n=3); 1% pentamidine (n=3); 2% pentamidine (n=3); or 5% pentamidine (n=3). […]
# p16 = p16 expression staining in rabbit ear skin after topical treatment; format: in vivo; settings: 2% topical pentamidine versus base only, four weeks, n=6 per group
# Method: as §2
molecule,measurement,setting,value
"N=C(N)c1ccc(OCCCCCOc2ccc(C(=N)N)cc2)cc1 [Pentamidine isethionate, 4,4-[1,5-pentanediylbis(oxy)]bis-benzenecarboximidamid]",solubility in acetone,[1]; acetone,insoluble
same,solubility in alcohol,[1]; alcohol,soluble
same,solubility in chloroform,[1]; chloroform,insoluble
same,solubility in ether,[1]; ether,insoluble
same,solubility in glycerin,[1]; glycerin,soluble
same,solubility in water,[1]; water,soluble
"N=C(N)c1ccc(OCCCCCOc2ccc(C(=N)N)cc2)cc1 [pentamidine, 4,4′-[pentane-1,5-diylbis(oxy)]dibenzenecarboximidamide]",inhibition of SPP1 promoter activity,"SPP1 promoter; Dual-Glo melanoma cells, firefly luciferase at the SPP1 promoter, renilla/CMV as loading control",greater than 80%
same,in vitro cell toxicity,WM858 Dual-Glo cells,minimal in vitro cell toxicity
same,hypertrophic scar formation,"[2]; 0.5% pentamidine, n=3",no response to minimal reduction
same,hypertrophic scar formation,"[2]; 1% pentamidine, n=3",no response to minimal reduction
same,hypertrophic scar formation,"[2]; 2% pentamidine in Pracasil-Plus base, daily, four weeks",Minimal hypertrophic scaring; also recorded: significantly inhibited hypertrophic scar formation; also recorded: observable scar reduction
same,re-epithelization of the wound,"[2]; 2% pentamidine, n=3",Effective re-epithelization
same,wound outcome at high dose,"[2]; 5% pentamidine, n=3",non-healing wound and abscess formation
same,p16 expression levels in dermal and epidermal regions,p16,decreased p16 levels; also recorded: reduced p16 expression levels
Vitamin D,effect on SPP1 promoter activity,SPP1 promoter; WM858 Dual-Glo cells,activated
